Assays:
NOX1 = target: T1, NOX1 (Homo sapiens, UniProt Q9Y5S8); experiment: NOX inhibition in cell free assay, membranes from cells overexpressing NOX1 (Amplex Red ROS); format: biochemical; conditions: cell-free, membranes from NOX1 over-expressing cells
T1 construct: expressed in transfected cells
T1 sequence (Q9Y5S8 1-564): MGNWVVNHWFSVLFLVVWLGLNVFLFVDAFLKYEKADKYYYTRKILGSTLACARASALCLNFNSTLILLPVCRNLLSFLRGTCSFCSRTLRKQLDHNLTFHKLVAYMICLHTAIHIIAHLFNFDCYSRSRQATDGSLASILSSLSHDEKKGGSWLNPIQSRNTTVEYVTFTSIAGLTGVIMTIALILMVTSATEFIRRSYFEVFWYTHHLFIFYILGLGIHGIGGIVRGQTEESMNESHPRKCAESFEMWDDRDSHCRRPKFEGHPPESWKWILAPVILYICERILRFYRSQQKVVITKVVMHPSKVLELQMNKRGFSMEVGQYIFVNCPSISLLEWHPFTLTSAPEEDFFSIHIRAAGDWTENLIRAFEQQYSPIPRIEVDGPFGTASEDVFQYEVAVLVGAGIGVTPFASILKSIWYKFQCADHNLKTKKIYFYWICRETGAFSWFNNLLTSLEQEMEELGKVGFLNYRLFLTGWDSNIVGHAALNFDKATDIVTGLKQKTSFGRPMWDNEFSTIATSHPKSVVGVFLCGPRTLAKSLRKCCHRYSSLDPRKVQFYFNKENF
T1 sequence (P13498 2-195 partner limits assumed): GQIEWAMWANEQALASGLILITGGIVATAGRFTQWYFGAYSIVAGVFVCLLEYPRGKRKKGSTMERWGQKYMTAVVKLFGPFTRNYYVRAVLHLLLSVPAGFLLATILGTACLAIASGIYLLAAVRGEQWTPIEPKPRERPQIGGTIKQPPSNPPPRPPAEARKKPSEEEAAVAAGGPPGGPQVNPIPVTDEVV
Description: (§1) Membranes from NOX2 expressing PMN cells or from cells overexpressing NOX1 or NOX4 were prepared as previously described. After resuspension in sonication buffer (11% sucrose, 120 mM NaCl, 1 mM EGTA in PBS, pH 7.4 for NOX4-expressing cells) or in relax buffer (10 mM Pipes, 3 mM NaCl, 3.5 mM MgCl2, 0.1 M KCl, pH 7.4), cells were broken by sonication and centrifuged (200 g, 10 min). The supernatant was loaded onto a 17/40% (w/v) discontinuous sucrose gradient and centrifuged (150,000 g for 30 min). Membrane fractions were collected and stored at −80°C. ROS production measurements of membranes expressing different NOX subunits was determined as previously described using the Amplex Red method (Invitrogen).

NOX2 = target: T2, NOX2 (Homo sapiens, UniProt P04839); experiment: NOX inhibition in cell free assay, membranes from NOX2 expressing PMN cells (Amplex Red ROS); format: biochemical; conditions: cell-free, membranes from NOX2 expressing PMN cells
T2 construct: Membranes from NOX2 expressing PMN cells; endogenous in cells; host or cells: PMN cells
T2 sequence (P04839 2-570 limits assumed): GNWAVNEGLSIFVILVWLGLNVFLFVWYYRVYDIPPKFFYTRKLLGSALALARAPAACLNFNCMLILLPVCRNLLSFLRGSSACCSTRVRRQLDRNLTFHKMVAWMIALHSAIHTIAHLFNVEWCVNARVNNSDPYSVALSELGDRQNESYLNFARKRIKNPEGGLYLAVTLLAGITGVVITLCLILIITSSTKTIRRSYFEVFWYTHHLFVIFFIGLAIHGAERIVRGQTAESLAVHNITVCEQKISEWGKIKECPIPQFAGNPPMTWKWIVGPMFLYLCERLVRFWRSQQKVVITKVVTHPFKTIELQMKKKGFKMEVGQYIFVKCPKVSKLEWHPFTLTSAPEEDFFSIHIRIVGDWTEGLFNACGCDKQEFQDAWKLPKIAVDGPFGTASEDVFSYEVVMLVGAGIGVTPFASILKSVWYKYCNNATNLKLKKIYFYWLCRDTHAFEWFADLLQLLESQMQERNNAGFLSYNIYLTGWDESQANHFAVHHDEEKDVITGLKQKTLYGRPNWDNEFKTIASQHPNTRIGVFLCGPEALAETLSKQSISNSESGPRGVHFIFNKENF
T2 sequence (P13498 2-195 partner limits assumed): T1 sequence (P13498 2-195 partner limits assumed)
Description: as §1

NOX4 = target: T3, NOX4 (Homo sapiens, UniProt Q9NPH5); experiment: NOX inhibition in cell free assay, membranes from cells overexpressing NOX4 (Amplex Red ROS); format: biochemical; conditions: cell-free, membranes from NOX4 over-expressing cells
T3 construct: expressed in transfected cells
T3 sequence (Q9NPH5 whole entry, species assumed, one chain of several): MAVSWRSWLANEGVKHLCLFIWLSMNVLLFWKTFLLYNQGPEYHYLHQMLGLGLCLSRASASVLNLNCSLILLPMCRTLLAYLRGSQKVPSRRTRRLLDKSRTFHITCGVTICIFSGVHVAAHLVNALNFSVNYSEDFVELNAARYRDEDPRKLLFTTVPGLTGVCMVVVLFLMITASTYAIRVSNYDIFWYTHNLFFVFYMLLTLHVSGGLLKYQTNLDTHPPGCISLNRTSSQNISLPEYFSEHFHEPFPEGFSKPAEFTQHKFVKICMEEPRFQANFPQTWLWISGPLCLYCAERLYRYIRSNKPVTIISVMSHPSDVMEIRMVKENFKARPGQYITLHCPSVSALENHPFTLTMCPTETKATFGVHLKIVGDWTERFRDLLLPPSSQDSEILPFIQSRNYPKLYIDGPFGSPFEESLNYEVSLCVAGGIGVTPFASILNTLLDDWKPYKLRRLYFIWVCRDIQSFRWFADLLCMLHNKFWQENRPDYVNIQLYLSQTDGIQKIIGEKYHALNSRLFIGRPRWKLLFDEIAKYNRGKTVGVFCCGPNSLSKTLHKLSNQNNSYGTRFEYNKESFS
Description: as §1

xanthine oxidase = xanthine oxidase (Homo sapiens, UniProt P47989); experiment: Xanthine oxidase inhibition, concentration-response; format: biochemical
Chain of xanthine oxidase (P47989 whole entry, species assumed): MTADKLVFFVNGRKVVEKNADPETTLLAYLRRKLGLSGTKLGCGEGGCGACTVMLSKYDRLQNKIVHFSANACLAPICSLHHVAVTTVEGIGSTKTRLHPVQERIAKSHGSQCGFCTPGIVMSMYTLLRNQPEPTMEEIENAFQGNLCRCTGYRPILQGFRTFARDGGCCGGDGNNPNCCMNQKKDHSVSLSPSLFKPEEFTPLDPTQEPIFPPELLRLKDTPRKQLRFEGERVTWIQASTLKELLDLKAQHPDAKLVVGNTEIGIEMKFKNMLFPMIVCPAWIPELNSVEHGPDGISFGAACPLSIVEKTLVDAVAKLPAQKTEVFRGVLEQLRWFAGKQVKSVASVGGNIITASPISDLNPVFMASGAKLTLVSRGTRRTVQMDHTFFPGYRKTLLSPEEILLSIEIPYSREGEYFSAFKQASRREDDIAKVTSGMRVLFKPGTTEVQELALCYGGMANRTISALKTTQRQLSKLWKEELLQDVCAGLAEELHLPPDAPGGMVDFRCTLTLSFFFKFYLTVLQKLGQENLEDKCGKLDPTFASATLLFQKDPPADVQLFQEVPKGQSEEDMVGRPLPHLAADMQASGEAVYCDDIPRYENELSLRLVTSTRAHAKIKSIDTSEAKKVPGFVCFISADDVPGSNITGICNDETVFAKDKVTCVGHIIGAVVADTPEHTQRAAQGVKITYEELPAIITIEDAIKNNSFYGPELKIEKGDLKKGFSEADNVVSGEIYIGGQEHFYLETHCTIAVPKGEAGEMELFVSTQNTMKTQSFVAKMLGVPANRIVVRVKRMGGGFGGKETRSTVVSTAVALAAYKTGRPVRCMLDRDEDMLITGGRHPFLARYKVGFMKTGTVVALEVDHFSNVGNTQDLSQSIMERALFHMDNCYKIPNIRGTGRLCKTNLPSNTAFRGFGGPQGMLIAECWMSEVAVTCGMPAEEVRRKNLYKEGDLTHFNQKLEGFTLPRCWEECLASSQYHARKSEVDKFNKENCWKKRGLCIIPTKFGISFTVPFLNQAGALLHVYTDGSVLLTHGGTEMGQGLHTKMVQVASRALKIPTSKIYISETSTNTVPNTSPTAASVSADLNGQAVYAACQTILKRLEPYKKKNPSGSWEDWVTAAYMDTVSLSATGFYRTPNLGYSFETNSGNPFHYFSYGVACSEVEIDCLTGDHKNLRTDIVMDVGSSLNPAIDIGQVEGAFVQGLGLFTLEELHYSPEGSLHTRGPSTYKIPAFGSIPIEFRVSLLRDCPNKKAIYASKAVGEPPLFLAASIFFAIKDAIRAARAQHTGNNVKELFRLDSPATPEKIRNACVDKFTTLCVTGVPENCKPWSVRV

MLEC [1] = experiment: Wound healing assay (endothelial cell migration); format: cell-based, mouse; conditions: NOX1-deficient MLEC, 10 µM, compared to untreated NOX1-deficient cells
Description: Wound healing assay was performed as described previously. Briefly, endothelial cells were plated in Matrigel (Becton Dickinson) precoated 96 wells plates. One day after plating the cell monolayer was scratched to make a regular wound. Cells were allowed to migrate overnight. Migration area was then measured and calculated using the Metamorph program (MDS Analytical Technologies).

MLEC [2] = experiment: Endothelial cell sprouting assay (tube-like structure formation, 3D culture); format: cell-based, mouse; conditions: NOX1-deficient MLEC, 10 µM, compared to untreated NOX1-deficient cells
Description: Sprouting assay was performed as described previously. Briefly, endothelial cells were plated in 96 well plates at 8,000 cells per well in a 3D fibrin gel. Above the gel, 10% FCS containing DMEM was complemented with 200 KIU/ml of Aprotinin (Sigma). Length of branches was evaluated using the Metamorph program. Results are expressed in mm of skeleton length/number of cells.

tEnd siRNA NOX1 = experiment: Quantitative real-time PCR of target genes in NOX1-silenced endothelial cell line; format: cell-based, mouse
Description: Total RNA from treated cells was extracted using RNeasy minikit (Qiagen). Total RNA was reverse-transcribed with the Superscript III first strand RT-PCR kit (Invitrogen). Quantitative real-time PCR was performed using SybrGreen master mix (Applied Biosystems) on Step one plus Real-time PCR machine (Applied Biosystems). Primer sequences are listed in the Materials and Methods S1.
For mouse cells, siRNAs were nucleofected using the Amaxa technology (Lonza). Gene silencing was assessed 48 hours after nucleofection by quantitative RT-PCR. For HUVEC, shRNA vectors (SABiosciences) were nucleofected using Amaxa. Gene silencing was assessed 48 hours after nucleofection by quantitative RT-PCR.

[3] = system: NOX1-silenced endothelial cell lines; experiment: p65 NF-κB nuclear translocation after VEGF or bFGF stimulation (Western blot, immunofluorescence); format: cell-based, mouse; conditions: 10 µM before stimulation with VEGF and bFGF
Description: After stimulation, nuclear and cytoplasmic proteins of endothelial cells were extracted according to Tauzin et al.. Briefly, cells were incubated in TKM buffer (50 mM Tris-HCl pH 7.4, 25 mM KCl, 5 mM MgCl2 and 1 mM EGTA) containing 1% Triton and protease inhibitor cocktail CLAP [10 µg/ml chymostatin, leupeptin, antipain and pepstatin A (Sigma) for 30 minutes on ice, sonicated for 2 minutes and centrifuged at 5000 g for 30 minutes. The pellet and the supernatant were separated and solubilized in sample buffer.
Cells were stimulated for the indicated time and then lysed in TNT buffer (50 mM Tris, 150 mM NaCl, 0.5% Triton X-100) complemented with protease inhibitor cocktail CLAP and phosphatase inhibitor cocktail [25 mM NaF, 20 mM b-Glycerophosphate, 5 mM HEPES, 2.5 mM EDTA, 0.5 mM Orthovanadate]. Membranes were blocked in PBS containing 0.5% BSA and hybridized with different antibodies.

[4] = tEnd siRNA NOX1 + GW 6471, compared to control cells

| Structure (SMILES) | Ki (NOX1) [nM] | Ki (NOX2) [nM] | Ki (NOX4) [nM] | Ki (xanthine oxidase) [nM] | cell migration of NOX1-deficient MLEC (MLEC [1]) | tube formation of NOX1-deficient MLEC (MLEC [2]) | PPARα up regulation in NOX1-silenced cells (tEnd siRNA NOX1; NOX1-silenced cells incubated with antagonist, data not shown) | Catalase expression, fold increase or decrease (tEnd siRNA NOX1; [4]) [fold] | GPX3 expression, fold increase or decrease (tEnd siRNA NOX1; [4]) [fold] | MMP-2 expression, fold increase or decrease (tEnd siRNA NOX1; [4]) [fold] | MMP-9 expression, fold increase or decrease (tEnd siRNA NOX1; [4]) [fold] | VCAM-1 expression, fold increase or decrease (tEnd siRNA NOX1; [4]) [fold] | VE-cadherin expression, fold increase or decrease (tEnd siRNA NOX1; [4]) [fold] | VEGF expression, fold increase or decrease (tEnd siRNA NOX1; [4]) [fold] | bFGF expression, fold increase or decrease (tEnd siRNA NOX1; [4]) [fold] | uPAR expression, fold increase or decrease (tEnd siRNA NOX1; [4]) [fold] | deficient nuclear translocation of NF-kB in NOX1-silenced cells [3] |
| --- | --- | --- | --- | --- | --- | --- | --- | --- | --- | --- | --- | --- | --- | --- | --- | --- | --- |
| c1ccc([I+]c2ccccc2)cc1 [DPI, Diphenyliodonium, reference compound] | 70 ± 10 | 70 | 70 | 50 |  |  |  |  |  |  |  |  |  |  |  |  |  |
| CCC(=O)NC[C@H](Cc1ccc(OCCc2nc(-c3ccccc3)oc2C)cc1)N/C(C)=C\C(=O)c1ccc(C(F)(F)F)cc1 [GW6471] |  |  |  |  | restored | restored | no longer observed | 0.92±0.012 | 0.70±0.01 | 2.13±0.24 | 0.47±0.07 | 0.57±0.18 | 0.9±0.2 | 0.68±0.04 | 0.64±0.25 | 1.34±0.6 | no longer observed |

Source: article PMC3034713, “Targeting Vascular NADPH Oxidase 1 Blocks Tumor Angiogenesis through a PPARα Mediated Mechanism” (PLoS ONE, 2011)
